Laboratory results: PMC11478212, “Antitumoral and Antiproliferative Potential of Synthetic Derivatives of Scorpion Peptide IsCT1 in an Oral Cavity Squamous Carcinoma Model” (Molecules, 2024)

Assays:
[1] = Resistance to degradation in 25% fetal bovine serum; type: in vitro ADME; conditions: 25% fetal bovine serum in water, 37 °C, HPLC peak area vs t = 0 h, triplicate
Procedure: (§1) Figure 1 (a) Helical wheel projections of the IsCT1, AFPK-IsCT1, KKK-IsCT1, and IsCT-P peptides were generated using the Heliquest server (https://heliquest.ipmc.cnrs.fr/, accessed on 15 July 2024). In these projections, yellow, gray, and green circles represent hydrophobic amino acids, while blue and pink circles denote hydrophilic amino acids. (b) Resistance to degradation assays for all peptides were performed over 6 h in a solution containing 25% fetal bovine serum (FBS). These experiments were conducted in triplicate and aliquots were collected for analysis at 0, 0.5, 1, 2, 4, and 6 h of incubation. The aliquots were subsequently analyzed using high-performance liquid chromatography (HPLC) after each incubation period. The degradation kinetics of the peptides were determined by comparing the integrated peak area associated with the peptide at the start of the experiment (t = 0 h) with the integrated peak area at subsequent time points (t = 0.5, 1, 2, 4, 6 h). (c) The hemolytic activity of synthetic peptides analogous to IsCT1 was assessed on human erythrocytes within a concentration range of 0.13–128 μmol L^−1 in phosphate-buffered saline (PBS) (n = 3). A 1% solution of sodium dodecyl sulfate (SDS) in PBS served as a positive control, while PBS alone was used as a negative control. (d) A table summarizing the sequences, molecular weights, and physicochemical properties of the IsCT1, AFPK-IsCT1, and KKK-IsCT1 peptides. […]
Stability assays were conducted using GIBCO (Waltham, MA, USA) fetal bovine serum diluted to 25% in water, as described by Torres et al.. Briefly, peptide solutions were added to the serum solution and maintained at 37 °C. The experiments were carried out in triplicate and samples were taken at 0, 0.5, 1, 2, 4, and 6 h post incubation. The degradation kinetics were monitored using liquid chromatography and the percentage of remaining peptides was calculated by integrating the peak area of the peptide.

human erythrocytes = assay: Hemolytic activity assay; type: cell-based; conditions: 0.13–128 μmol L−1 in PBS, n = 3; 1% SDS positive control, PBS negative control
Procedure: as §1, with “3).” for “3). A 1% solution of sodium dodecyl sulfate (SDS) in PBS served as a positive control, while PBS alone was used as a negative control. (d) A table summarizing the sequences, molecular weights, and physicochemical properties of the IsCT1, AFPK-IsCT1, and KKK-IsCT1 peptides.”
Cell survival was assessed using an MTT assay. […] Absorbance was then measured at a wavelength of 540 nm using a microplate reader. […]

SCC-25 tumor cells [2] = assay: Cell cycle phase and DNA fragmentation analysis (flow cytometry); type: cell-based; conditions: 24 h, IsCT-P and AC-AFPK-IsCT1 at IC50, others 100 µM
Procedure: Figure 3 Analysis of cell cycle phases following a 24 h treatment with synthetic analogs of IsCT1 peptides. The indicated cells were treated at the IC50 values obtained for the IsCT-P and AC-AFPK-IsCT1 peptides and at a concentration of 100 µM for the other peptides. (a) Representative histograms of cell distribution across cell cycle phases; (b) bar graph showing the correlation of the effect on cell cycle and fragmented DNA, expressed as the mean ± SD of three independent SCC-9 tumor cell experiments; (c) bar graph showing the correlation of the effect on cell cycle and fragmented DNA, expressed as the mean ± SD of three independent experiments on SCC-25 tumor cells; (d) bar graph showing the correlation of the effect on cell cycle and fragmented DNA, expressed as the mean ± SD of three independent experiments of normal FN1 cells; (e) bar graph showing the correlation of the effect on cell cycle and fragmented DNA, expressed as the mean ± SD of three independent experiments of normal J774 cells. Statistical differences were obtained using ANOVA and Tukey–Kramer multiple comparison tests. * p < 0.05, ** p < 0.01, and *** p < 0.001 denote significance. ns = not significant.
Tumor (SSC-9 and SSC-25) and normal cells (FN1 and J-774) were subjected to treatment for 24 h at the peptides’ IC50 concentrations. Treated and control cells were trypsinized and centrifuged at 1200 rpm for 5 min. The resulting pellet was resuspended in 1 mL of cold buffer, followed by the addition of 3 mL of absolute ethanol. Samples were stored at −20 °C for 24 h. The samples were then centrifuged at 1500 rpm for 10 min and resuspended in 200 μL of FACS buffer containing 0.1% Triton X-100 (Sigma-Aldrich, St. Louis, MO, USA), 50 μg/mL propidium iodide (Sigma-Aldrich), and 1 µL of RNAse (200×). This mixture was kept at room temperature and protected from light for 30 min. The samples were then transferred to cytometry tubes and analyzed using a FACScanto flow cytometer (BD) with 10,000 events, and histograms were acquired and analyzed using ModFit LT 5.0 software.

SCC-9 tumor cells = assay: Mitochondrial potential by confocal microscopy (MitoRed/DAPI); type: cell-based; conditions: 24 h, IsCT-P and AC-AFPK-IsCT1 at IC50, others 100 µM, MitoRed, DAPI
Procedure: (§2) Figure 5 Photomicrographs of tongue squamous cell carcinoma tumor cells (SCC-9 and SCC-25) and macrophages (J774), with mitochondria stained red (MitoRED) and nuclei stained blue (DAPI), analyzed using confocal laser microscopy. The indicated cells were treated at the IC50 values obtained for the IsCT-P and AC-AFPK-IsCT1 peptides and at a concentration of 100 µM for the other peptides for a period of 24 h.
(§3) For the confocal microscopy ana.lysis, tumor and normal cells were cultured in 24-well plates containing round coverslips with RPMI and Leibovitz medium, respectively, supplemented with 10% FBS and incubated with 5% CO2 at 37 °C for 24 h. Samples from the control and treated groups were subjected to the process of removing the culture medium and washing with RPMI medium. A total of 200 nML^−1 of MitoRed (Sigma-Aldrich, USA) was then added and the cells were incubated for 1 h in the dark at 37 °C. After incubation, the cells were washed with PBS, incubated with MitoRed, and fixed with 4% paraformaldehyde for 30 min. The cells were then washed with PBS and incubated. A total of 10 µL of VECTASHIELD® antifade with DAPI (Vector Laboratories, Burlingame, CA, USA) was used on the slide to promote the sealing and marking of the nucleus. The slides were stored in a closed place until the day of reading. Coverslips were placed on slides for observation under a confocal laser fluorescence microscope (Fluoview™ 300) and images were documented and analyzed.

SCC-25 tumor cells [3] = assay: as above; type: cell-based; conditions: 24 h, IsCT-P and AC-AFPK-IsCT1 at IC50, others 100 µM, MitoRed, DAPI
Procedure: as §2, §3

| Substance | metabolised at 0.5 h ([1]; 30 min) [%] | hemolytic activity (human erythrocytes) | fragmented DNA (SCC-25 tumor cells [2]) [%] | change in mitochondrial electric potential (confocal) (SCC-9 tumor cells) | change in mitochondrial electric potential (confocal) (SCC-25 tumor cells [3]) | remaining at 1 h ([1]; 1 h, read-out: peptide remaining intact after 1 h) [%] | remaining at 4 h ([1]; 4 h, read-out: peptide remaining intact after 4 h) [%] |
| --- | --- | --- | --- | --- | --- | --- | --- |
| Ac-ALGKFWPKIKSLF-NH2 [AC-AFPK-IsCT1] | 18 | did not show hemolytic activity at high concentrations | 16.5 | promoted a reduction in the mitochondrial electric potential | promoted a reduction in the mitochondrial electric potential | – | – |
| H-ILKKIWKPIKKLF-NH2 [IsCT-P] | – | caused the hemolysis | 32.4 | promoted a reduction in the mitochondrial electric potential | promoted a reduction in the mitochondrial electric potential | 70 | 18 |
